From patent US12012410B2, “Substituted pyrazolo[1,5-a]pyrazines for spinal muscular atrophy” (REBORNA BIOSCIENCES, INC., priority 2018, dated 2024)

Test system: FL-SMN mRNA (SMN transcript containing exons 7 and 8)
Test: Live-cell assay to measure changes in FL-SMN mRNA levels (qPCR) after exposure to the compounds
Type: cell-based, human
Conditions: fibroblasts derived from patients SMA (GM03813); 24 hours incubation
Procedure, shortened: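 SMA patient fibroblasts (GM03813) in DMEM/10% FBS were treated with compound (0.1% DMSO final) for 24 h. FL-SMN and Δ7 mRNA were measured by RT-qPCR against oligo DNA standard curves and normalised to GAPDH. Values are % of the DMSO control, binned by asterisk from ≥100% to ≥180%.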

SMILES | Percentage of increase (FL-SMN mRNA standardized against GAPDH, DMSO control set as 100%)
Cc1cn2cc(-c3cc(F)c4nc(C5(F)CCN(C)CC5)[nH]c(=O)c4c3)cc(F)c2n1 [Example 97, 8-fluoro-6-(8-fluoro-2-methylimidazo[1,2-a]pyridin-6-yl)-2-(4-fluoro-1-methylpiperidin-4-yl)quinazolin-4(3H)-one] | **** (equal to or higher than 180%)
CCN1CCC(F)(c2nc3c(F)cc(-c4cc(F)c5nc(C)cn5c4)cc3c(=O)[nH]2)CC1 [Example 98, 2-(1-ethyl-4-fluoropiperidin-4-yl)-8-fluoro-6-(8-fluoro-2-methylimidazo[1,2-a]pyridin-6-yl)quinazolin-4(3H)-one] | **** (equal to or higher than 180%)
Cc1cn2cc(-c3cc(F)c4nc(C5(F)CCN(C(C)C)CC5)[nH]c(=O)c4c3)cc(F)c2n1 [Example 99, 8-fluoro-2-(4-fluoro-1-isopropylpiperidin-4-yl)-6-(8-fluoro-2-methylimidazo[1,2-a]pyridin-6-yl)quinazolin-4(3H)-one] | **** (equal to or higher than 180%)
CCN1CCC(F)(c2nc3c(C)cc(-c4cc(F)c5nc(C)cn5c4)nc3c(=O)[nH]2)CC1 [Example 100, 2-(1-ethyl-4-fluoropiperidin-4-yl)-6-(8-fluoro-2-methylimidazo[1,2-a]pyridin-6-yl)-8-methylpyrido[3,2-d]pyrimidin-4(3H)-one] | **** (equal to or higher than 180%)
Cc1cn2cc(-c3cc(C)c4nc(C5(F)CCN(C(C)C)CC5)[nH]c(=O)c4n3)cc(F)c2n1 [Example 101, 2-(4-fluoro-1-isopropylpiperidin-4-yl)-6-(8-fluoro-2-methylimidazo[1,2-a]pyridin-6-yl)-8-methylpyrido[3,2-d]pyrimidin-4(3H)-one] | *** (equal to or higher than 150% but lower than 180%)
Cc1cn2cc(-c3ccc4nc(C5(F)CCN(C6CC6)CC5)[nH]c(=O)c4n3)cc(F)c2n1 [Example 102, 2-(1-cyclopropyl-4-fluoropiperidin-4-yl)-6-(8-fluoro-2-methylimidazo[1,2-a]pyridin-6-yl)pyrido[3,2-d]pyrimidin-4(3H)-one] | ** (equal to or higher than 120% but lower than 150%)
Cc1cn2cc(-c3cc(C)c4nc(C5(F)CCN(C6CC6)CC5)[nH]c(=O)c4c3)cnc2n1 [Example 103, 2-(1-cyclopropyl-4-fluoropiperidin-4-yl)-6-(2-methylimidazo[1,2-a]pyrimidin-6-yl)-8-methylquinazolin-4(3H4)-one] | ** (equal to or higher than 120% but lower than 150%)
Cc1cn2cc(-c3cc4c(=O)[nH]c(C5(F)CCN(C6CC6)CC5)nc4cn3)cc(F)c2n1 [Example 104, 2-(1-cyclopropyl-4-fluoropiperidin-4-yl)-6-(8-fluoro-2-methylimidazo[1,2-a]pyridin-6-yl)pyrido[3,4-d]pyrimidin-4(3H)-one] | *** (equal to or higher than 150% but lower than 180%)
Cc1nc2c(F)cc(-c3ccc4nc(C5CCN(C6CC6)CC5)[nH]c(=O)c4n3)cc2o1 [Example 106, 2-(1-cyclopropylpiperidin-4-yl)-6-(4-fluoro-2-methyl-1,3-benzoxazol-6-yl)pyrido[3,2-d]pyrimidin-4(3H)-one] | ** (equal to or higher than 120% but lower than 150%)
Cc1nc2c(F)cc(-c3cc4c(=O)[nH]c(C5(F)CCN(C6CC6)CC5)nc4cn3)cc2o1 [Example 107, 2-(1-cyclopropyl-4-fluoropiperidin-4-yl)-6-(4-fluoro-2-methyl-1,3-benzoxazol-6-yl)pyrido[3,4-d]pyrimidin-4(3H)-one] | ** (equal to or higher than 120% but lower than 150%)
